Where a name gives a salt, the structure may show the parent alone.
Experiments:
[1] = molecular target: T1, Angiotensin II receptor (Bos taurus, UniProt P25104); assay: Inhibition of specific binding of 3H-angiotensin II to the angiotensin II receptor on membrane fractions of the adrenal cortex; parameters: species or system cattle (bovine); details: 3H-angiotensin II (3-5 nM), bovine adrenal cortex membranes, 60 min, room temperature
T1 construct: Adrenal cortices of cattle (ACC), which have been freshly removed and carefully freed of gland medulla; from tissue; host or cells: bovine adrenal cortex, partially purified membrane fractions
T1 sequence (P25104 1-359): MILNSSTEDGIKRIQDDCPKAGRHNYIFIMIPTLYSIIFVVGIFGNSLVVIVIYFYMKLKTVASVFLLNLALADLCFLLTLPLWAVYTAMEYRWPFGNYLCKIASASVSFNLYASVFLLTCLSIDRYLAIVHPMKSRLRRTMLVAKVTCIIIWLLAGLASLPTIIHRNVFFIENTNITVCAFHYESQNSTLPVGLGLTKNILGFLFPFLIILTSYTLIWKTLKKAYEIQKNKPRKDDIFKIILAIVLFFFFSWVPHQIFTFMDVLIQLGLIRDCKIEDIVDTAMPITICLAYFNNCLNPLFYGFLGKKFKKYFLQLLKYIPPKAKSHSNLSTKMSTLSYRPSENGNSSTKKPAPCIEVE
Source text: Interaction of the Compounds According to the Invention With the Angiotensin II Receptor on Membrane Fractions of the Adrenal Cortex (Cattle)
Adrenal cortices of cattle (ACC), which have been freshly removed and carefully freed of gland medulla, are comminuted in sucrose solution (0.32M) with the aid of an Ultra-Turrax (Janke & Kunkel, Staufen i.B.) to give a coarse membrane homogenate and partially purified in two centrifugation steps to give membrane fractions. The investigations of receptor binding were carried out on partially purified membrane fractions of bovine ACC using radioactive angiotensin II in an assay volume of 0.25 ml, which in detail contains the partially purified membranes (50-80 μg), ^3 H-angiotensin II (3-5 nM), test buffer solution (50 mM tris, pH 7.2, 5 mM MgCl2 and the substances to be investigated. After an incubation time of 60 min at room temperature, the unbound radioactivity of the samples is separated by means of moistened glass fibre filters (Whatman GF/C) and the bound radioactivity is measured spectrophotometrically in a scintillation cocktail after washing the protein with ice-cold buffer solution (50 mM tris/HCl, pH 7.4, 5% PEG 6000). The analysis of the raw data was carried out using computer programs to give Ki and IC50 values (Ki: IC50 values corrected for the radioactivity used; IC50 values: concentration at which the substance to be investigated causes a 50% inhibition of the specific binding of the radioligand).

[2] = tested on: Angiotensin II-Infused Rat; assay: Blood pressure measurements on the angiotensin II-infused rat; format: in vivo, Male Wistar rats; details: 0.3 mg/kg p.o.; angiotensin II infusion 0.3 μg/kg/min; anaesthetised rats
Protocol: Blood Pressure Measurements on the Angiotensin II-Infused Rat
Male Wistar rats (Moellegaard, Copenhagen, Denmark) having a body weight of 300-350 g are anaesthetised with thiopental (100 mg/kg i.p.). After tracheotomy, one catheter is inserted in the femoral artery for blood pressure measurement and one catheter is inserted in the femoral veins for angiotensin II infusion and one catheter for substance administration. After administration of the ganglionic blocker pentolinium (5 mg/kg i.v.), angiotensin II infusion (0.3 μg/kg/min) is started. As soon as the blood pressure values have reached a stable plateau, the test substances are administered either intravenously or orally as a suspension or solution in 0.5% tylose.

[3] = tested on: contraction of the isolated rabbit aorta induced by angiotensin II; assay: Inhibition of the angiotensin II-induced vascular contraction of isolated rabbit aorta rings in vitro; format: cell-based; details: Oryctolagus cuniculus; isolated aorta rings of rabbits in vitro; based on 3rd = sub-maximal agonist concentration; read-out: IC50 for contractions induced by AII
Protocol: Investigation of the Inhibition of the Contraction Induced by Agonists
Rabbits of both sexes are stunned by a blow to the neck and bled out, or in some cases anaesthetised with Nembutal (about 60-80 mg/kg i.v.) and sacrificed by opening the thorax. The thorax aorta is removed, freed of adhering connective tissue, divided into 1.5 mm wide ring segments and individually transferred under an initial loading of about 3.5 g to 10 ml organ baths containing 95% O2, 5% CO2 -aerated Krebs-Henseleit nutrient solution adjusted to 37° C. and of the following composition: 119 mmol/l of NaCl; 2.5 mmol/l of CaCl2 ×2H2 O; 1.2 mmol/l of KH2 PO4; 10 mmol/l of glucose; 4.8 mmol/l of KCl; 1.4 mmol/l of MgSO4 ×7 H2 O and 25 mmol/l of NaHCO3.
The contractions are detected isometrically by Statham UC2 cells by means of bridge amplifiers (ifd Mulheim or DSM Aalen) and digitalised and analysed by means of an A/D converter (System 570, Keithley Munich). The agonist dose-response curves (DRC) are carried out hourly. With each DRC, 3 or 4 individual concentrations are applied to the baths at 4 min intervals. After the end of the DRC and subsequent washing-out cycles (16 times, in each case about 5 sec/min with the abovementioned nutrient solution), a 28-minute resting or incubation phase follows, in the course of which the contractions as a rule reach the starting value again.
The height of the 3rd DRC, in the normal case, is used as a reference quantity for the assessment of the test substance to be investigated in other passages, which is applied to the baths in the following DRCs in increasing dosage in each case at the start of the incubation time. Each aorta ring is in this way stimulated for the whole day, always with the same agonist.
For the calculation of the IC50 (concentration at which the substance to be investigated causes a 50% inhibition), the effect is in each case based on the 3rd=sub-maximal agonist concentration.
rings of rabbits in vitro
IC50 (g/ml) for contractions induced by: AII

Compound	Ki [1] [nM]	IC50 [3] [nM]	further results
CCc1cc(CC)n(Cc2ccc(-c3ccccc3-c3nnn[nH]3)cc2)c(=O)c1C#N [XXXIV]	> 10000		
6-Butyl-4-methoxycarbonyl-2-oxo-1-{[2'-(N-triphenylmethyl-tetrazol-5-yl)biphenyl-4-yl]methyl}-1,2-dihydropyridine [Example I]			Blood pressure decrease [2]: > 50 mm Hg
CCCCc1cc(COC)cc(=O)n1Cc1ccc(-c2ccccc2-c2nnn[nH]2)cc1 [LXXXII]	79		
CCCCc1cc(C(=O)OCC)c(C#N)c(=O)n1Cc1ccc(-c2ccccc2-c2nnn[nH]2)cc1 [XLVII]	220		
CCCc1cc(C(N)=O)cc(=O)n1Cc1ccc(-c2ccccc2-c2nnn[nH]2)cc1 [Example LVI]	9		
CCCCc1cc(CO)cc(=O)n1Cc1ccc(-c2ccccc2-c2nnn[nH]2)cc1 [LIV]		13	
CCCCc1cc(C(N)=O)cc(=O)n1Cc1ccc(-c2ccccc2-c2nnn[nH]2)cc1 [XLV]		3.7	
CCCCc1cccc(=O)n1Cc1ccc(-c2ccccc2-c2nnn[nH]2)cc1 [XXXIII]		7.3	
CCCc1cc(C(=O)OC)cc(=O)n1Cc1ccc(-c2ccccc2-c2nnn[nH]2)cc1 [LXXVIII]		34	
N#Cc1c(C(=O)O)cc(C2CC2)n(Cc2ccc(-c3ccccc3-c3nnn[nH]3)cc2)c1=O [XCIV]	42		
CCCCc1cc(COC)cc(=O)n1Cc1ccc(-c2ccccc2-c2nnn[nH]2)cc1 [Example LV]	15		
CCCCc1cc(C(=O)O)cc(=O)n1Cc1ccc(-c2ccccc2-c2nnn[nH]2)cc1 [Example XCII, 6-Butyl-4-carboxy-2-oxo-1[(2'-tetrazol-5-yl-biphenyl-4-yl)methyl-1,2-dihydropyridinedisodium salt]		120	
CCCCc1cc(C(=O)OCc2ccccc2)cc(=O)n1Cc1ccc(-c2ccccc2-c2nnn[nH]2)cc1 [XLIII]		39	

— patent publication US5356911A, “Substituted biphenylpyridones” (Bayer Aktiengesellschaft, priority 1991, dated 1994)
